What was measured:
Assay type in all cases: cell-based
[1] = system: KELLY cells; test: Primary functional miRNA mimic screen, CellTiter-Glo cell viability; conditions: miRNA mimic 25 nM alone, 144 hours post-transfection
Description: Breast cancer cell lines (MDA-MB-231, MDA-MB-468, SK-BR-3; BT474) and prostate cancer cell lines (PC3, DU145) were obtained from American Type Culture Collection (ATCC). Neuroblastoma cell lines (KELLY, SHEP) were received from Children's Cancer Institute (CCIA). The KELLY cells were selected as a MYCN amplified neuroblastoma cell line and the SHEP cells were selected as a MYCN wild-type neuroblastoma cell line. All breast and prostate cancer cell lines were cultivated in RPMI media supplemented with 10% FCS, HEPES, and insulin. […] Each of the cell lines were reverse transfected in 384-well plate format with 25 nM of a miRNA from the Dharmacon miRNA mimic or inhibitor libraries (version 16.0) using liquid-handling robot Calliper Sciclone ALH3000 according to the conditions described in Table 3. […] Luminescence measurements were taken on the Synergy H4 high-throughput multimode microplate reader. All screens were performed in duplicates. Raw viability was normalised to a nontargeting control (OTP) or mock wells, and death genes or controls inducing varying levels of death were used to monitor transfection efficiency and to define dynamic range in each screen (FIG. 1). To define screen hits, normalised viability scores were binned in the following manner: CV1 bin included candidates with viability >=0.8; […] Only LC candidates were defined as screen hits.

[2] = system: SHEP cells; test: as above; conditions: miRNA mimic 25 nM alone, 144 hours post-transfection
Description: Breast cancer cell lines (MDA-MB-231, MDA-MB-468, SK-BR-3; BT474) and prostate cancer cell lines (PC3, DU145) were obtained from American Type Culture Collection (ATCC). Neuroblastoma cell lines (KELLY, SHEP) were received from Children's Cancer Institute (CCIA). The KELLY cells were selected as a MYCN amplified neuroblastoma cell line and the SHEP cells were selected as a MYCN wild-type neuroblastoma cell line.
All breast and prostate cancer cell lines were cultivated in RPMI media supplemented with 10% FCS, HEPES, and insulin. The neuroblastoma cell lines, KELLY, SHEP, were grown in 10% FCS/RPMI and 10% FCS/DMEM, respectively.
(§1) Each of the cell lines were reverse transfected in 384-well plate format with 25 nM of a miRNA from the Dharmacon miRNA mimic or inhibitor libraries (version 16.0) using liquid-handling robot Calliper Sciclone ALH3000 according to the conditions described in Table 3. After 24 hours, media was changed using BioTek 406, and 144 hours post-transfection, cell viability was determined using CellTiter-Glo luminescent assay (Promega) at 1:2 dilution. Luminescence measurements were taken on the Synergy H4 high-throughput multimode microplate reader. All screens were performed in duplicates.
Raw viability was normalised to a nontargeting control (OTP) or mock wells, and death genes or controls inducing varying levels of death were used to monitor transfection efficiency and to define dynamic range in each screen (FIG. 1). To define screen hits, normalised viability scores were binned in the following manner: CV1 bin included candidates with viability >=0.8; CV2 bin included candidates with viability <0.8 and >0.5, and LC bin was assigned to candidates with normalised viability <=0.5. Only LC candidates were defined as screen hits.

[3] = system: KELLY cells; test: Secondary validation screen of lethal miRNAs, cell viability; conditions: miRNA mimic alone
Description: as §1
(§2) The secondary validation screens were performed in accordance with the genome-wide screens described in Example 1 and Example 2, respectively, with the exception that an additional MYCN-amplified neuroblastoma cell line (SK-N-DZ) was added to each screen.
(§3) Furthermore, five additional non-active miRNAs discovered to have no measureable effect across all treatment groups of the genome-wide screen (‘non-lethal’ miRNAs) were included as negative controls.

[4] = system: SHEP cells; test: as above; conditions: miRNA mimic alone
Description: as §1, §2, §3

[5] = system: SK-N-DZ MYCN-amplified neuroblastoma cell line; test: Secondary validation screen of lethal miRNAs, additional cell line, cell viability; conditions: miRNA mimic alone
Description: as §1, §2, §3

[6] = system: RBFOX2 mRNA; test: qPCR of target mRNA in KELLY cells transfected with miRNA mimic; conditions: 25 nM mimic, 96 h after transfection
Description: (§4) KELLY cells were transfected with let-7b-5p, miR-101-3p, and miR-202-3p mimics and real-time PCR performed to determine any changes in mRNA expression levels of HAND1, RGS16, RBFOX2, and ACVR2B. Briefly, KELLY cells were grown in 10% FCS/RPMI and transfected with 25 nM of let-7b-5p, miR-101-3p or miR-202-3p mimic using Dharmafect 1 (DF1) transfection reagent. 96 h after transfection, the cells were harvested and total RNA was extracted using miRneasy kit (Qiagen). RNA was then subjected to reverse transcription to generate cDNA. Quantification of gene expression was then performed using qPCR and Taqman probes and primers for HAND1, RGS 16, RBFOX2, and ACVR2B. The levels of gene expression for HAND1, RGS16, RBFOX2, and ACVR2B were normalised to the housekeeping genes B2M and GAPDH

[7] = system: RGS16 mRNA; test: as above; conditions: 25 nM mimic, 96 h after transfection
Description: as §4

hsa-miR-542-3p (guide UGUGACAGAUUGAUAACUGAAA; chemistry not given here; listed as Homo sapiens)
Primary screen Viability (% of control) KELLY [1]: 6 % of control
Primary screen Viability (% of control) SHEP [2]: 29 % of control
Secondary screen Viability (% of control) KELLY [3]: 20 % of control
Secondary screen Viability (% of control) SHEP [4]: 38 % of control
Additional cell line Viability (% of control) SKNDZ [5]: 28 % of control

hsa-miR-192-3p (CUGCCAAUUCCAUAGGUCACAG; chemistry not given here; listed as Homo sapiens)
Primary screen Viability (% of control) KELLY [1]: 42 % of control
Primary screen Viability (% of control) SHEP [2]: 43 % of control
Secondary screen Viability (% of control) KELLY [3]: 54 % of control
Secondary screen Viability (% of control) SHEP [4]: 49 % of control
Additional cell line Viability (% of control) SKNDZ [5]: 97 % of control

hsa-miR-489 (guide GUGACAUCACAUAUACGGCAGC; chemistry not given here; listed as Homo sapiens)
Primary screen Viability (% of control) KELLY [1]: 5 % of control
Primary screen Viability (% of control) SHEP [2]: 40 % of control
Secondary screen Viability (% of control) KELLY [3]: 4 % of control
Secondary screen Viability (% of control) SHEP [4]: 43 % of control
Additional cell line Viability (% of control) SKNDZ [5]: 33 % of control

hsa-miR-101-3p (UACAGUACUGUGAUAACUGAA; chemistry not given here; listed as Homo sapiens)
Primary screen Viability (% of control) KELLY [1]: 6 % of control
Primary screen Viability (% of control) SHEP [2]: 58 % of control
Secondary screen Viability (% of control) KELLY [3]: 7 % of control
Secondary screen Viability (% of control) SHEP [4]: 69 % of control
Additional cell line Viability (% of control) SKNDZ [5]: 72 % of control
RBFOX2 mRNA levels [6]: did not affect
RGS16 mRNA levels [7]: did not affect

hsa-miR-654-5p (guide UGGUGGGCCGCAGAACAUGUGC; chemistry not given here; listed as Homo sapiens)
Primary screen Viability (% of control) KELLY [1]: 6 % of control
Primary screen Viability (% of control) SHEP [2]: 30 % of control
Secondary screen Viability (% of control) KELLY [3]: 7 % of control
Secondary screen Viability (% of control) SHEP [4]: 45 % of control
Additional cell line Viability (% of control) SKNDZ [5]: 28 % of control

hsa-miR-544a (guide AUUCUGCAUUUUUAGCAAGUUC; chemistry not given here; listed as Homo sapiens)
Primary screen Viability (% of control) KELLY [1]: 7 % of control
Primary screen Viability (% of control) SHEP [2]: 32 % of control
Secondary screen Viability (% of control) KELLY [3]: 17 % of control
Secondary screen Viability (% of control) SHEP [4]: 61 % of control
Additional cell line Viability (% of control) SKNDZ [5]: 59 % of control

hsa-miR-892b (guide CACUGGCUCCUUUCUGGGUAGA; chemistry not given here; listed as Homo sapiens)
Primary screen Viability (% of control) KELLY [1]: 5 % of control
Primary screen Viability (% of control) SHEP [2]: 30 % of control
Secondary screen Viability (% of control) KELLY [3]: 3 % of control
Secondary screen Viability (% of control) SHEP [4]: 34 % of control
Additional cell line Viability (% of control) SKNDZ [5]: 54 % of control

hsa-miR-552 (guide AACAGGUGACUGGUUAGACAA; chemistry not given here; listed as Homo sapiens)
Primary screen Viability (% of control) KELLY [1]: 2 % of control
Primary screen Viability (% of control) SHEP [2]: 36 % of control
Secondary screen Viability (% of control) KELLY [3]: 2 % of control
Secondary screen Viability (% of control) SHEP [4]: 47 % of control
Additional cell line Viability (% of control) SKNDZ [5]: 36 % of control

hsa-miR-103a-2-5p (AGCUUCUUUACAGUGCUGCCUUG; chemistry not given here; listed as Homo sapiens)
Primary screen Viability (% of control) KELLY [1]: 26 % of control
Primary screen Viability (% of control) SHEP [2]: 46 % of control
Secondary screen Viability (% of control) KELLY [3]: 39 % of control
Secondary screen Viability (% of control) SHEP [4]: 56 % of control
Additional cell line Viability (% of control) SKNDZ [5]: 52 % of control

hsa-miR-517c-3p (guide AUCGUGCAUCCUUUUAGAGUGU; chemistry not given here; listed as Homo sapiens)
Primary screen Viability (% of control) KELLY [1]: 26 % of control
Primary screen Viability (% of control) SHEP [2]: 40 % of control
Secondary screen Viability (% of control) KELLY [3]: 27 % of control
Secondary screen Viability (% of control) SHEP [4]: 43 % of control
Additional cell line Viability (% of control) SKNDZ [5]: 21 % of control
